Experiment: xn = mol fraction of the nth substance listed
Conditions: 101 kPa, Liquid; for speed of sound: Pulse-echo method; for mass density: Vibrating tube method

ClCCCCCCl [1,5-dichloropentane] + CCCCCCCCCCCC
Conditions	mass density [kg/m3]	speed of sound [m/s]
278.15 K, x1 = 0.05237	769.83	1353.9
278.15 K, x1 = 0.1014	780	1351.3
278.15 K, x1 = 0.2008	802.34	1347.1
278.15 K, x1 = 0.3039	827.99	1344.1
278.15 K, x1 = 0.3945	852.98	1342.4
278.15 K, x1 = 0.4983	884.91	1342.1
278.15 K, x1 = 0.6014	920.97	1343.6
278.15 K, x1 = 0.6987	959.17	1347.1
278.15 K, x1 = 0.7975	1003.24	1353.4
278.15 K, x1 = 0.9021	1056.96	1363.5
278.15 K, x1 = 0.9497	1084.25	1369.5
278.15 K, x1 = 1	1115.28	1376.6
283.15 K, x1 = 0.05237	766.19	1334.4
283.15 K, x1 = 0.1014	776.32	1331.9
283.15 K, x1 = 0.2008	798.55	1327.8
283.15 K, x1 = 0.3039	824.08	1324.9
283.15 K, x1 = 0.3945	848.97	1323.6
283.15 K, x1 = 0.4983	880.76	1323.4
283.15 K, x1 = 0.6014	916.68	1325.1
283.15 K, x1 = 0.6987	954.72	1328.9
283.15 K, x1 = 0.7975	998.63	1335.3
283.15 K, x1 = 0.9021	1052.15	1345.6
283.15 K, x1 = 0.9497	1079.35	1351.7
283.15 K, x1 = 1	1110.26	1358.9
288.15 K, x1 = 0.05237	762.54	1314.6
288.15 K, x1 = 0.1014	772.61	1312.2
288.15 K, x1 = 0.2008	794.74	1308.2
288.15 K, x1 = 0.3039	820.16	1305.7
288.15 K, x1 = 0.3945	844.93	1304.4
288.15 K, x1 = 0.4983	876.58	1304.5
288.15 K, x1 = 0.6014	912.36	1306.4
288.15 K, x1 = 0.6987	950.25	1310.3
288.15 K, x1 = 0.7975	993.99	1317
288.15 K, x1 = 0.9021	1047.3	1327.5
288.15 K, x1 = 0.9497	1074.4	1333.7
288.15 K, x1 = 1	1105.2	1341
293.15 K, x1 = 0.05237	758.89	1295.1
293.15 K, x1 = 0.1014	768.91	1292.8
293.15 K, x1 = 0.2008	790.94	1289
293.15 K, x1 = 0.3039	816.25	1286.6
293.15 K, x1 = 0.3945	840.9	1285.5
293.15 K, x1 = 0.4983	872.42	1285.7
293.15 K, x1 = 0.6014	908.04	1287.9
293.15 K, x1 = 0.6987	945.78	1292
293.15 K, x1 = 0.7975	989.35	1298.8
293.15 K, x1 = 0.9021	1042.45	1309.5
293.15 K, x1 = 0.9497	1069.46	1315.8
293.15 K, x1 = 1	1100.16	1323.2
298.15 K, x1 = 0.05237	755.23	1275.6
298.15 K, x1 = 0.1014	765.22	1273.5
298.15 K, x1 = 0.2008	787.14	1269.8
298.15 K, x1 = 0.3039	812.33	1267.5
298.15 K, x1 = 0.3945	836.86	1266.6
298.15 K, x1 = 0.4983	868.24	1267
298.15 K, x1 = 0.6014	903.71	1269.3
298.15 K, x1 = 0.6987	941.31	1273.7
298.15 K, x1 = 0.7975	984.72	1280.7
298.15 K, x1 = 0.9021	1037.61	1291.6
298.15 K, x1 = 0.9497	1064.51	1298
298.15 K, x1 = 1	1095.11	1305.4
303.15 K, x1 = 0.05237	751.58	1256.4
303.15 K, x1 = 0.1014	761.51	1254.2
303.15 K, x1 = 0.2008	783.32	1250.7
303.15 K, x1 = 0.3039	808.4	1248.6
303.15 K, x1 = 0.3945	832.82	1247.8
303.15 K, x1 = 0.4983	864.07	1248.4
303.15 K, x1 = 0.6014	899.38	1250.9
303.15 K, x1 = 0.6987	936.82	1255.4
303.15 K, x1 = 0.7975	980.06	1262.6
303.15 K, x1 = 0.9021	1032.76	1273.8
303.15 K, x1 = 0.9497	1059.56	1280.3
303.15 K, x1 = 1	1090.07	1287.9
308.15 K, x1 = 0.05237	747.91	1237.3
308.15 K, x1 = 0.1014	757.8	1235.2
308.15 K, x1 = 0.2008	779.49	1231.8
308.15 K, x1 = 0.3039	804.47	1229.8
308.15 K, x1 = 0.3945	828.76	1229.2
308.15 K, x1 = 0.4983	859.88	1230
308.15 K, x1 = 0.6014	895.05	1232.7
308.15 K, x1 = 0.6987	932.33	1237.4
308.15 K, x1 = 0.7975	975.41	1244.8
308.15 K, x1 = 0.9021	1027.91	1256.1
308.15 K, x1 = 0.9497	1054.61	1262.7
308.15 K, x1 = 1	1085.02	1270.3
313.15 K, x1 = 0.05237	744.24	1218.4
313.15 K, x1 = 0.1014	754.07	1216.4
313.15 K, x1 = 0.2008	775.66	1213.2
313.15 K, x1 = 0.3039	800.53	1211.4
313.15 K, x1 = 0.3945	824.71	1210.9
313.15 K, x1 = 0.4983	855.7	1211.8
313.15 K, x1 = 0.6014	890.7	1214.6
313.15 K, x1 = 0.6987	927.83	1219.6
313.15 K, x1 = 0.7975	970.74	1227
313.15 K, x1 = 0.9021	1023.05	1238.5
313.15 K, x1 = 0.9497	1049.66	1245.2
313.15 K, x1 = 1	1079.97	1253
318.15 K, x1 = 0.05237	740.56	1199.7
318.15 K, x1 = 0.1014	750.34	1197.7
318.15 K, x1 = 0.2008	771.82	1194.6
318.15 K, x1 = 0.3039	796.59	1192.9
318.15 K, x1 = 0.3945	820.64	1192.5
318.15 K, x1 = 0.4983	851.51	1193.6
318.15 K, x1 = 0.6014	886.36	1196.7
318.15 K, x1 = 0.6987	923.36	1201.7
318.15 K, x1 = 0.7975	966.1	1209.5
318.15 K, x1 = 0.9021	1018.21	1221.1
318.15 K, x1 = 0.9497	1044.74	1227.9
318.15 K, x1 = 1	1074.95	1235.8
323.15 K, x1 = 0.05237	736.88	1181
323.15 K, x1 = 0.1014	746.61	1179.3
323.15 K, x1 = 0.2008	767.98	1176.2
323.15 K, x1 = 0.3039	792.63	1174.7
323.15 K, x1 = 0.3945	816.57	1174.4
323.15 K, x1 = 0.4983	847.29	1175.6
323.15 K, x1 = 0.6014	882	1178.8
323.15 K, x1 = 0.6987	918.84	1184.1
323.15 K, x1 = 0.7975	961.42	1191.9
323.15 K, x1 = 0.9021	1013.35	1203.8
323.15 K, x1 = 0.9497	1039.77	1210.6
323.15 K, x1 = 1	1069.89	1218.7
328.15 K, x1 = 0.05237	733.17	1162.7
328.15 K, x1 = 0.1014	742.86	1160.8
328.15 K, x1 = 0.2008	764.14	1157.9
328.15 K, x1 = 0.3039	788.68	1156.5
328.15 K, x1 = 0.3945	812.52	1156.4
328.15 K, x1 = 0.4983	843.12	1157.7
328.15 K, x1 = 0.6014	877.69	1161.2
328.15 K, x1 = 0.6987	914.4	1166.5
328.15 K, x1 = 0.7975	956.8	1174.5
328.15 K, x1 = 0.9021	1008.57	1186.6
328.15 K, x1 = 0.9497	1034.9	1193.5
328.15 K, x1 = 1	1064.93	1201.6
